Patent US20040142012A1, “Geometry retainable devices for body cavities” (priority 2001, published 2004)

Details: in vivo
Method: Progesterone content in the plasma was determined by direct radio immuno assay (Coat-a-Count, DPC, USA).

poly (ε-caprolactone)
Time to return to undetectable basal plasma progesterone levels after insert removal: ≤ 24 h
